Data: ChEMBL document CHEMBL3603744, “Structure activity relationship of C-2 ether substituted 1,5-naphthyridine analogs of oxabicyclooctane-linked novel bacterial topoisomerase inhibitors as broad-spectrum antibacterial agents (Part-5)” (Bioorg Med Chem Lett, 2015)
Values after ≈ are worked out from the molar mass of the structure shown. Active and inactive are the calls of the source. No rule for the calls is given here.

Tests used:
Enterococcus faecium = assay: Antimicrobial activity against vancomycin-resistant Enterococcus faecium VanA by micro broth dilution or agar based method; format: functional
Staphylococcus aureus [1] = assay: Antimicrobial activity against Staphylococcus aureus Smith by micro broth dilution or agar based method; format: functional
Streptococcus pneumoniae = assay: Antimicrobial activity against Streptococcus pneumoniae IID553 by micro broth dilution or agar based method; format: functional
Pseudomonas aeruginosa = assay: Antimicrobial activity against Pseudomonas aeruginosa PAO1 by micro broth dilution or agar based method; format: functional
Staphylococcus aureus [2] = assay: Antimicrobial activity against methicillin-resistant Staphylococcus aureus OIT971 by micro broth dilution or agar based method; format: functional, organism-based
Escherichia coli = assay: Antimicrobial activity against Escherichia coli ATCC 25922 by micro broth dilution or agar based method; format: functional
Acinetobacter baumannii = assay: Antimicrobial activity against Acinetobacter baumannii IID876 by micro broth dilution or agar based method; format: functional

SMILES: N#CC1(COc2ccc3ncc(F)c(CCC45CCC(NCc6ccc7c(n6)NC(=O)CO7)(CC4)CO5)c3n2)CC1
- MIC (Enterococcus faecium): 4 µg/mL (≈ 7.16 µM)
- MIC (Staphylococcus aureus [1]): 0.063 µg/mL (≈ 0.113 µM)
- MIC (Streptococcus pneumoniae): 1 µg/mL (≈ 1.79 µM)
- MIC (Pseudomonas aeruginosa): 16 µg/mL (≈ 28.6 µM)
- growth inhibition (GI) (Staphylococcus aureus [2]): Active
- MIC (Escherichia coli): 16 µg/mL (≈ 28.6 µM)
- MIC (Acinetobacter baumannii): 2 µg/mL (≈ 3.58 µM)

SMILES: O=C1COc2ccc(CNC34CCC(CCc5c(F)cnc6ccc(OCC7(O)COC7)nc56)(CC3)OC4)nc2N1
- MIC (Enterococcus faecium): 4 µg/mL (≈ 7.07 µM)
- MIC (Staphylococcus aureus [1]): 0.125 µg/mL (≈ 0.221 µM)
- MIC (Streptococcus pneumoniae): 0.5 µg/mL (≈ 0.884 µM)
- MIC (Pseudomonas aeruginosa): 32 µg/mL (≈ 56.6 µM)
- growth inhibition (GI) (Staphylococcus aureus [2]): Active
- MIC (Escherichia coli): 16 µg/mL (≈ 28.3 µM)
- MIC (Acinetobacter baumannii): 4 µg/mL (≈ 7.07 µM)

SMILES: O=C(O)CCCCOc1ccc2ncc(F)c(CCC34CCC(NCc5ccc6c(n5)NC(=O)CO6)(CC3)CO4)c2n1
- MIC (Enterococcus faecium): 2 µg/mL (≈ 3.45 µM)
- MIC (Staphylococcus aureus [1]): 0.063 µg/mL (≈ 0.109 µM)
- MIC (Streptococcus pneumoniae): 0.25 µg/mL (≈ 0.431 µM)
- MIC (Pseudomonas aeruginosa): 16 µg/mL (≈ 27.6 µM)
- growth inhibition (GI) (Staphylococcus aureus [2]): Active
- MIC (Escherichia coli): 16 µg/mL (≈ 27.6 µM)
- MIC (Acinetobacter baumannii): 16 µg/mL (≈ 27.6 µM)

SMILES: O=C(O)COc1ccc2ncc(F)c(CCC34CCC(NCc5ccc6c(n5)NC(=O)CO6)(CC3)CO4)c2n1
- MIC (Enterococcus faecium): 16 µg/mL (≈ 29.8 µM)
- MIC (Staphylococcus aureus [1]): 16 µg/mL (≈ 29.8 µM)
- MIC (Streptococcus pneumoniae): 16 µg/mL (≈ 29.8 µM)
- MIC (Pseudomonas aeruginosa): 16 µg/mL (≈ 29.8 µM)
- growth inhibition (GI) (Staphylococcus aureus [2]): Active
- MIC (Escherichia coli): 16 µg/mL (≈ 29.8 µM)
- MIC (Acinetobacter baumannii): 16 µg/mL (≈ 29.8 µM)

SMILES: NC1CC1COc1ccc2ncc(F)c(CCC34CCC(NCc5ccc6c(n5)NC(=O)CO6)(CC3)CO4)c2n1 (stereo not given)
- MIC (Enterococcus faecium): 4 µg/mL (≈ 7.29 µM)
- MIC (Staphylococcus aureus [1]): 0.125 µg/mL (≈ 0.228 µM)
- MIC (Streptococcus pneumoniae): 1 µg/mL (≈ 1.82 µM)
- MIC (Pseudomonas aeruginosa): 16 µg/mL (≈ 29.2 µM)
- growth inhibition (GI) (Staphylococcus aureus [2]): Active
- MIC (Escherichia coli): 2 µg/mL (≈ 3.65 µM)
- MIC (Acinetobacter baumannii): 0.25 µg/mL (≈ 0.456 µM)

SMILES: NCC1(COc2ccc3ncc(F)c(CCC45CCC(NCc6ccc7c(n6)NC(=O)CO7)(CC4)CO5)c3n2)CC1
- MIC (Enterococcus faecium): 16 µg/mL (≈ 28.4 µM)
- MIC (Staphylococcus aureus [1]): 1 µg/mL (≈ 1.78 µM)
- MIC (Streptococcus pneumoniae): 0.5 µg/mL (≈ 0.889 µM)
- MIC (Pseudomonas aeruginosa): 32 µg/mL (≈ 56.9 µM)
- growth inhibition (GI) (Staphylococcus aureus [2]): Active
- MIC (Escherichia coli): 8 µg/mL (≈ 14.2 µM)
- MIC (Acinetobacter baumannii): 4 µg/mL (≈ 7.11 µM)

SMILES: N[C@H]1COC[C@@H]1Oc1ccc2ncc(F)c(CCC34CCC(NCc5ccc6c(n5)NC(=O)CO6)(CC3)CO4)c2n1
- MIC (Enterococcus faecium): 16 µg/mL (≈ 28.3 µM)
- MIC (Staphylococcus aureus [1]): 0.25 µg/mL (≈ 0.443 µM)
- MIC (Streptococcus pneumoniae): 4 µg/mL (≈ 7.08 µM)
- MIC (Pseudomonas aeruginosa): 32 µg/mL (≈ 56.7 µM)
- growth inhibition (GI) (Staphylococcus aureus [2]): Active
- MIC (Escherichia coli): 8 µg/mL (≈ 14.2 µM)
- MIC (Acinetobacter baumannii): 2 µg/mL (≈ 3.54 µM)

SMILES: N[C@@H]1CO[C@@H]1COc1ccc2ncc(F)c(CCC34CCC(NCc5ccc6c(n5)NC(=O)CO6)(CC3)CO4)c2n1
- MIC (Enterococcus faecium): 8 µg/mL (≈ 14.2 µM)
- MIC (Staphylococcus aureus [1]): 0.125 µg/mL (≈ 0.221 µM)
- MIC (Streptococcus pneumoniae): 1 µg/mL (≈ 1.77 µM)
- MIC (Pseudomonas aeruginosa): 32 µg/mL (≈ 56.7 µM)
- growth inhibition (GI) (Staphylococcus aureus [2]): Active
- MIC (Escherichia coli): 8 µg/mL (≈ 14.2 µM)
- MIC (Acinetobacter baumannii): 1 µg/mL (≈ 1.77 µM)

SMILES: NCC(O)COc1ccc2ncc(F)c(CCC34CCC(NCc5ccc6c(n5)NC(=O)CO6)(CC3)CO4)c2n1 (stereo not given)
- MIC (Enterococcus faecium): 16 µg/mL (≈ 29 µM)
- MIC (Staphylococcus aureus [1]): 2 µg/mL (≈ 3.62 µM)
- MIC (Streptococcus pneumoniae): 1 µg/mL (≈ 1.81 µM)
- MIC (Pseudomonas aeruginosa): 16 µg/mL (≈ 29 µM)
- growth inhibition (GI) (Staphylococcus aureus [2]): Active
- MIC (Escherichia coli): 8 µg/mL (≈ 14.5 µM)
- MIC (Acinetobacter baumannii): 32 µg/mL (≈ 57.9 µM)

SMILES: O=C1COc2ccc(CNC34CCC([C@@H](O)Cc5c(F)cnc6ccc(OCCCO)nc56)(CC3)OC4)nc2N1
- MIC (Enterococcus faecium): 4 µg/mL (≈ 7.23 µM)
- MIC (Staphylococcus aureus [1]): 0.125 µg/mL (≈ 0.226 µM)
- MIC (Streptococcus pneumoniae): 0.5 µg/mL (≈ 0.903 µM)
- MIC (Pseudomonas aeruginosa): 16 µg/mL (≈ 28.9 µM)
- MIC (Escherichia coli): 16 µg/mL (≈ 28.9 µM)
- MIC (Acinetobacter baumannii): 4 µg/mL (≈ 7.23 µM)

SMILES: COC(=O)[C@H]1C[C@@H]1COc1ccc2ncc(F)c(CCC34CCC(NCc5ccc6c(n5)NC(=O)CO6)(CC3)CO4)c2n1 (relative stereo)
- MIC (Enterococcus faecium): 4 µg/mL (≈ 6.76 µM)
- MIC (Staphylococcus aureus [1]): 0.031 µg/mL (≈ 0.0524 µM)
- MIC (Streptococcus pneumoniae): 0.25 µg/mL (≈ 0.423 µM)
- MIC (Pseudomonas aeruginosa): 16 µg/mL (≈ 27 µM)
- growth inhibition (GI) (Staphylococcus aureus [2]): Active
- MIC (Escherichia coli): 16 µg/mL (≈ 27 µM)
- MIC (Acinetobacter baumannii): 8 µg/mL (≈ 13.5 µM)

SMILES: COC(=O)[C@@H]1C[C@@H]1COc1ccc2ncc(F)c(CCC34CCC(NCc5ccc6c(n5)NC(=O)CO6)(CC3)CO4)c2n1 (relative stereo)
- growth inhibition (GI) (Staphylococcus aureus [2]): Active

SMILES: N[C@H]1CO[C@@H]1COc1ccc2ncc(F)c(CCC34CCC(NCc5ccc6c(n5)NC(=O)CO6)(CC3)CO4)c2n1
- MIC (Enterococcus faecium): 4 µg/mL (≈ 7.08 µM)
- MIC (Staphylococcus aureus [1]): 0.125 µg/mL (≈ 0.221 µM)
- MIC (Streptococcus pneumoniae): 0.5 µg/mL (≈ 0.886 µM)
- MIC (Pseudomonas aeruginosa): 16 µg/mL (≈ 28.3 µM)
- growth inhibition (GI) (Staphylococcus aureus [2]): Active
- MIC (Escherichia coli): 4 µg/mL (≈ 7.08 µM)
- MIC (Acinetobacter baumannii): 0.5 µg/mL (≈ 0.886 µM)

SMILES: NC1COCC1Oc1ccc2ncc(F)c(CCC34CCC(NCc5ccc6c(n5)NC(=O)CO6)(CC3)CO4)c2n1 (stereo not given)
- MIC (Enterococcus faecium): 8 µg/mL (≈ 14.2 µM)
- MIC (Staphylococcus aureus [1]): 0.125 µg/mL (≈ 0.221 µM)
- MIC (Streptococcus pneumoniae): 1 µg/mL (≈ 1.77 µM)
- MIC (Pseudomonas aeruginosa): 16 µg/mL (≈ 28.3 µM)
- growth inhibition (GI) (Staphylococcus aureus [2]): Active
- MIC (Escherichia coli): 4 µg/mL (≈ 7.08 µM)
- MIC (Acinetobacter baumannii): 1 µg/mL (≈ 1.77 µM)

SMILES: N[C@@H]1COC[C@H]1Oc1ccc2ncc(F)c(CCC34CCC(NCc5ccc6c(n5)NC(=O)CO6)(CC3)CO4)c2n1
- MIC (Enterococcus faecium): 8 µg/mL (≈ 14.2 µM)
- MIC (Staphylococcus aureus [1]): 0.125 µg/mL (≈ 0.221 µM)
- MIC (Streptococcus pneumoniae): 0.5 µg/mL (≈ 0.886 µM)
- MIC (Pseudomonas aeruginosa): 16 µg/mL (≈ 28.3 µM)
- growth inhibition (GI) (Staphylococcus aureus [2]): Active
- MIC (Escherichia coli): 4 µg/mL (≈ 7.08 µM)
- MIC (Acinetobacter baumannii): 1 µg/mL (≈ 1.77 µM)

SMILES: O=C1COc2ccc(CNC34CCC(CCc5c(F)cnc6ccc(OC7CC(O)CC(O)C7)nc56)(CC3)OC4)nc2N1 (stereo not given)
- MIC (Enterococcus faecium): 16 µg/mL (≈ 27 µM)
- MIC (Staphylococcus aureus [1]): 0.5 µg/mL (≈ 0.842 µM)
- MIC (Streptococcus pneumoniae): 0.5 µg/mL (≈ 0.842 µM)
- MIC (Pseudomonas aeruginosa): 64 µg/mL (≈ 108 µM)
- growth inhibition (GI) (Staphylococcus aureus [2]): Active
- MIC (Escherichia coli): 64 µg/mL (≈ 108 µM)
- MIC (Acinetobacter baumannii): 32 µg/mL (≈ 53.9 µM)

SMILES: O=C1COc2ccc(CNC34CCC(CCc5c(F)cnc6ccc(OCCc7cc(=O)c(O)c[nH]7)nc56)(CC3)OC4)nc2N1
- MIC (Enterococcus faecium): 32 µg/mL (≈ 51.9 µM)
- MIC (Staphylococcus aureus [1]): 16 µg/mL (≈ 25.9 µM)
- MIC (Streptococcus pneumoniae): 8 µg/mL (≈ 13 µM)
- MIC (Pseudomonas aeruginosa): 32 µg/mL (≈ 51.9 µM)
- growth inhibition (GI) (Staphylococcus aureus [2]): Active
- MIC (Escherichia coli): 32 µg/mL (≈ 51.9 µM)
- MIC (Acinetobacter baumannii): 32 µg/mL (≈ 51.9 µM)

SMILES: O=C1COc2ccc(CNC34CCC(CCc5c(F)cnc6ccc(OCCCCO)nc56)(CC3)OC4)nc2N1
- MIC (Enterococcus faecium): 2 µg/mL (≈ 3.63 µM)
- MIC (Staphylococcus aureus [1]): 0.031 µg/mL (≈ 0.0562 µM)
- MIC (Streptococcus pneumoniae): 0.5 µg/mL (≈ 0.906 µM)
- MIC (Pseudomonas aeruginosa): 16 µg/mL (≈ 29 µM)
- growth inhibition (GI) (Staphylococcus aureus [2]): Active
- MIC (Escherichia coli): 8 µg/mL (≈ 14.5 µM)
- MIC (Acinetobacter baumannii): 2 µg/mL (≈ 3.63 µM)

SMILES: NCCCOc1ccc2ncc(F)c(CCC34CCC(NCc5ccc6c(n5)NC(=O)CO6)(CC3)CO4)c2n1
- MIC (Enterococcus faecium): 4 µg/mL (≈ 7.45 µM)
- MIC (Staphylococcus aureus [1]): 0.25 µg/mL (≈ 0.466 µM)
- MIC (Streptococcus pneumoniae): 0.5 µg/mL (≈ 0.932 µM)
- MIC (Pseudomonas aeruginosa): 8 µg/mL (≈ 14.9 µM)
- MIC (Escherichia coli): 2 µg/mL (≈ 3.73 µM)
- MIC (Acinetobacter baumannii): 2 µg/mL (≈ 3.73 µM)
